The source of these data is patent publication US20040259932A1, “Method and compound to reduce the incidence of diabetes in a subject with chronic heart failure” (priority 2003, published 2004).

For test [1], the system named is patients with hypertension. To be noted: cited from earlier work; for patients who developed diabetes: losartan compared with atenolol.
For the next test, the system named is Elderly. To be noted: candesartan compared with placebo; nonsignificant; cited from earlier work.
The subject of the next test is hypertensive population. To be noted: captopril compared with a β-blocker or a diuretic; cited from earlier work.
The conditions of test [2]: compared with metoprolol; cited from earlier work.
The test system of test [3] is obese, hypertensive, and dyslipidemic patients. To be noted: given for 12 weeks; cited from earlier work.
Test [4] deals with patients with left ventricular dysfunction. In words: Retrospective analysis of Montreal Heart Institute patients of the SOLVD trials: new-onset diabetes (FPG≧126 mg/dL at 2 visits). It is filed as in vivo, human. From the text:
The patients from the Montreal Heart Institute who were randomized in the SOLVD trials were included in this study. SOLVD was a multicenter, double-blind, randomized, placebo-controlled trial that assessed the effect of the ACE inhibitor enalapril on survival in patients with left ventricular dysfunction (ejection fraction≦35%). The details of the trial have been described elsewhere.^12 Briefly, the prevention trial included 4228 patients with asymptomatic left ventricular dysfunction, and the treatment trial randomized 2569 patients with congestive heart failure from June 1986 to August 1991. Patients were randomized to enalapril (5 to 20 mg/day) or placebo. Exclusion criteria included age >80 years, unstable angina pectoris, myocardial infarction in the previous month, severe pulmonary disease, renal insufficiency (creatinine level>177 μmol/L [2 mg/dL]), and intolerance to ACE inhibitor or current ACE inhibitor use. Follow-up visits were scheduled 2 and 6 weeks after randomization and every 4 months until the end of the study, for a mean follow-up of 3.4 and 3.1 years for the treatment and prevention trials, respectively.
Baseline characteristics, past medical history, and medication profiles at the time of enrolment into the SOLVD trials were obtained from the SOLVD databases. Fasting plasma glucose (FPG) was not collected for research purposes in the SOLVD trials. However, follow-up of patients in SOLVD involved regular blood samples, including FPG, at almost every research visit. Accordingly, the medical file of each patient was reviewed, and FPG results were collected. Chart reviewers were blinded to treatment allocation.
A diagnosis of new onset diabetes during the follow-up period was defined according to the American Diabetes Association criteria^13 as a FPG≧126 mg/dL (7.0 mmol/L) at 2 different visits. For the purpose of the present study, the visits in which FPG≧126 occurred during infection, trauma, or acute myocardial infarction were not included.
Participants with diabetes at baseline (history of diabetes or FPG≧126 mg/dL at screening visit) were excluded. The study population was further divided among patients with impaired FPG at baseline (110 mg/dL[6.1 mmol/L]≦FPG<126mg/dL [7.0 mmol/L]) and those with normal FPG at baseline (FPG<110 mg/dL).
The baseline characteristic of the 2 groups were compared using Student's t test for continuous variables and the X^2 test for categorical variables. Incidence of diabetes in the 2 groups was compared with the X^2 test. Time to occurrence of diabetes during the follow-up was analyzed with Kaplan-Meier curves and compared with the log-rank test. To analyze the effect of the treatment (enalapril) on development of diabetes, a Cox regression analysis was used to take into account the effect of potential confounding baseline variables (age, sex, current smoking, history of hypertension, and weight) and time-dependent variables (systolic blood pressure; diastolic blood pressure; and use of β-blockers, diuretics, calcium-channel blockers, antiplatelet agents, or antiarrhythmics). Cox proportional-hazard models were performed for each variable, with treatment (enalapril) forced in all models. Variables with a P≦0.2 were included in a multivariate Cox proportional hazard model. […] Subgroup analyses were conducted with the X^2 test. In the particular subgroup of patients with impaired FPG at baseline, Kaplan-Meier curves were performed. Preliminary assumptions were verified before all analyses. P<0.05 was considered significant. All analyses were performed using SAS version 8.2 (SAS Institute, Inc).

In the next test the test system is hypertensive rats. To be noted: cited from earlier work.
The test system of test [5] is high-risk patients with no evidence of left ventricular dysfunction. To be noted: cited from earlier work.

Each structure is given as a SMILES string. “Also recorded” adds a separate entry of the source.

Regarding `CC(C)NCC(O)COc1ccc(CC(N)=O)cc1` (stereo not drawn) [atenolol], in test [1], the “patients who developed diabetes” value is 8%.
For `CCOc1nc2cccc(C(=O)O)c2n1Cc1ccc(-c2ccccc2-c2nnn[nH]2)cc1` [candesartan], in the test on Elderly, the “relative reduction in the incidence of diabetes” value is 20%.
`C[C@H](CS)C(=O)N1CCC[C@H]1C(=O)O` [captopril]: the “relative risk of developing diabetes (RR)” value in the test on hypertensive population is reported as 0.86.
As to `COc1ccccc1OCCNCC(O)COc1cccc2[nH]c3ccccc3c12` (stereo not drawn) [carvedilol], in test [2], the “effect on insulin sensitivity” value is reported as “favorable effect on insulin sensitivity”.
As for `CCOC(=O)[C@H](CCc1ccccc1)N[C@@H](C)C(=O)N1CCC[C@H]1C(=O)O` [enalapril], the insulin sensitivity result (in test [3]; in the test with hypertensive rats) was “improved insulin sensitivity” each time. The “probability of remaining free from diabetes during follow-up” value in test [4] (Kaplan-Meier, enalapril vs placebo, P<0.0001, FIG. 1) is recorded as “significantly higher”. In addition, the “New cases of diabetes, %” value came to 6.0% in test [4] (Prevention arm of the trial (n = 198)); 5.7% in test [4] (Treatment arm of the trial (n = 93)); 3.3% in test [4] (impaired FPG at baseline, IFG (n = 55)); 6.6% in test [4] (normal FPG at baseline, NFG (n = 236)); 5.9% in test [4] (total population (n = 291), enalapril 5 to 20 mg/day, mean follow-up 2.9 years). Further, the “Absolute Risk Reduction” value was determined as 13.4% in test [4] (Prevention arm of the trial (n = 198), enalapril vs placebo); 24.3% in test [4] (Treatment arm of the trial (n = 93), enalapril vs placebo); 45% in test [4] (impaired FPG at baseline, IFG (n = 55), enalapril vs placebo); 44.7% in test [4] (impaired FPG at baseline, IFG (n = 55), enalapril vs placebo, listed as Enalapril); 10.7% in test [4] (normal FPG at baseline, NFG (n = 236), enalapril vs placebo); 16.5% in test [4] (total population (n = 291), enalapril vs placebo). The “relative risk [RR] of new-onset diabetes” value in test [4] (enalapril vs placebo, total population) is listed as 0.26. Also, in test [4] (multivariate analysis, Cox regression model, 95% confidence intervals 0.10 to 0.46), the “Hazard Ratio for development of diabetes” value is listed as 0.22. The “risk of developing diabetes (in words)” value in test [4] (patients with left ventricular systolic dysfunction) is given as “markedly reduced the risk of developing diabetes; also recorded: markedly reduces the risk of developing diabetes mellitus”. The “number of patients to treat to prevent one new case of diabetes” value in test [4] (treated for 2.9 years) stood at 6 patients.
For the molecule `CCCCc1nc(Cl)c(CO)n1Cc1ccc(-c2ccccc2-c2nn[nH]n2)cc1` [losartan], the “patients who developed diabetes” value in test [1] is given as 6%. Besides, in test [1] (losartan vs atenolol), the “RR of developing diabetes” value is listed as 0.75.
As for `CCOC(=O)[C@H](CCc1ccccc1)N[C@@H](C)C(=O)N1[C@H](C(=O)O)C[C@@H]2CCC[C@@H]21` [ramipril], in test [5] (ramipril vs placebo), the “RR of developing diabetes” value is 0.66. The incidence of diabetes in test [5] (treatment period of 4.5 years) is 3.6%. The “reduction of the relative risk of developing diabetes” value in test [5] (treatment period of 4.5 years, ramipril vs placebo) is on record as 34%.
